How the values were obtained:
[1] = system: Kaposi's sarcoma and nontumorous oral mucosa tissues; assay: microcalorimetric heat output of biopsy specimens; parameters: species or system human; details: biopsy specimens in 30 uM DNP
Source text: Laboratory studies: EKG, serum electrolytes, renal and liver function tests were normal. Hematocrit was 35.5%, WBC was 9,900 with 81% neutrophils, 4 bands, 11 lymphocytes and 4 monocytes. Platelets were 314,000/mm^3. Viral load was 400,000 copies/ml (Amplicor HIV Monitor test, Roche). A CD4^+ T cell count was quantified by flow cytometry at 250/mm^3. They were antibody positive for hepatitis C. […] Karnofsky score was greater than 70. Normal and tumor tissue biopsies, 3 to 6 mm in diameter, from the oral cavity and anus were obtained. The tissues were equally divided, weighed and placed in 4° C. Ringers lactate solution. Histologically confirmed normal and KS tissues were then subjected to microcalorimetric measurements in a thermal activity monitor (ThermoMetric, Jarfalla, Sweden). Recorded heat output (μW/min) was 8.2-8.5 times greater for the KS sarcoma lesions than nontumorous oral mucosa tissues. Repeat measurements with biopsies specimens in 30 uM DNP increased heat production in tumorous tissues 20.5 times more than nontumorous specimens.

[2] = system: peritoneal carcinomatosis, undifferentiated adenocarcinoma; assay: DNP with vasopressor and chemotherapy, peritoneal carcinomatosis (Example 4); format: in vivo, human
Source text: It was elected to treat the patient with hyperthermochemotherapy. Treatment consisted of DNP, and combination chemotherapy with carboplatin, mitomycin, and doxifluridine. An α-1 adrenergic receptor agonist was used to minimize peripheral vascular dilation and heat loss.
Pretreatment protocol: the patient was transfused with three units of packed red blood cells. A Foley catheter was inserted on each day of treatment. They were covered in a water soaked blanket containing a polyethylene lining. A shower cap with towels was used to prevent heat loss from the head. Intravenous lines were placed into both arms with 19 gauge intracaths. EKG, heart rate, rectal thermistor, and V02 monitors were attached. Oxygen supplemented facemask and equipment was attached and data monitored as previously described under Example 1.
Treatment protocol: the patient was given chemotherapy […]. The total doses of carboplatin, and mitomycin were 450 mg and 24 mg IV respectively on day 1 and last day of week 6. Doxifluridine, 600 mg, was orally administered every day for 5 days and repeated the last 5 days of week 6. On the day of DNP infusion, baseline recordings were established for 10 minutes. Mephenteramine sulfate, 30 mg, was given by intramuscular injection. Ten minutes later their heart rate increased to 96 and […] V02 increased from 250 to 320 cc/min. V02, heart rate and blood pressure stabilized after 20 minutes and they were given an initial dose of 1 mg/kg DNP. Additional 0.5 mg/kg infusions of DNP were administered in 3 successive infusions spaced 20 minutes apart. […] The DNP treatment protocol was repeated every fourth day for a period of 6 weeks.

[3] = system: Echinococcus multilocularis; assay: DNP with glucagon, hydatid disease of the liver (Example 1); format: in vivo, human
Experimental: Pretreatment protocol: the patient was given 10 mg diazepam by mouth and dressed into a modified wet suit. The wet suit was cut lengthwise at the arms and legs. Velcro strappings were attached at the cuttings for closure, rapid removal or exposure of the limb(s). After placement of monitoring sensors, they were started on IV fluids of 5% dextrose, 0.5 normal saline with 7 meq K^+, infused at an initial rate of 12 cc/kg/hr. Evaporative heat loss from the head was minimized by a plastic shower cap and towels. A 401AC temperature probe (YSI Incorporated, Yellow Springs, Ohio) was inserted 11 cm. into the rectum. […] A TEEM 100 Metabolic Analysis System (AeroSport Inc., Ann Arbor, Mich.), with a modified face mask and oxygen delivery system (38-40% 02 saturation) for patient comfort and increased accuracy, was attached to the patient. Oxygen consumption (V02), carbon dioxide production (VC02), expired air volume (VE), heart rate (HR), and Kcal of heat produced were measured in 20 second intervals and extrapolated to minute or hourly rates.
Treatment procedure: After baseline recordings of 10 minutes, the required amount of DNP to raise the initial V02 to achieve a temperature in the patient of 40° C. was calculated as described under “DNP dosage required to increase V02”. The patient was given an initial dose of 1 mg/kg of DNP, infused intravenously over a 3 minute period. […]

[4] = system: metastatic, hormone-refractory prostate carcinoma; assay: DNP with methylene blue, prostate carcinoma (Example 9); format: in vivo, human
Experimental: Pretreatment protocol: the patient was transfused with 2 units of packed red blood cells 48 hours prior to undergoing treatment. Intravenous fluids (Lactated Ringer's solution) were administered at a rate of 100 cc/hour. The patient was dressed in comfortable cotton clothing and placed in an air-conditioned room. Equipment for monitoring heart rate and rhythm, temperature and oxygen consumption was utilized as outlined in Example 1. An oral breathing tube was used to conduct TEEM VO2 measurements. Oxygen supplementation and “crash cart” was available at bedside.
Treatment protocol: baseline VO2 measurements for 8 minutes established an average VO2 of 250 cc/minute. DNP, at a dose of 2 mg/kg, was infused intravenously over a 2 minute period. Repeat VO2 at 20 minutes was stabilized at 340-360 cc/minute. An additional 1 mg/kg DNP infusion was administered, and 15 minutes thereafter the VO2 increased and stabilized at 420 cc/minute. Ten minutes thereafter, an infusion of methylene blue, 2 mg/kg (dissolved in a […] pyrogen-free isotonic saline solution-35 ml) was administered over 20 minutes.
By hour 3, VO2 declined to the 360-380 cc/minute range. An additional 1 mg/kg dose of DNP was infused over a 2 minute period. […] Rectal probe temperature increased to a maximum of 1.3° C. over baseline. […] The protocol was repeated every other day for a total of 15 treatments (30 days). Therapy was discontinued for 2 weeks and the cycle was again repeated for an additional 30 days, treatment being administered every other day.

How did the “heat production in tumorous tissues versus nontumorous specimens” value [1] turn out when O=[N+]([O-])c1ccc(O)c([N+](=O)[O-])c1 [DNP, 2,4-dinitrophenol] was run?
The value was 20.5 times.

And the “magnetic resonance imaging and echo of the abdomen” value ([2]; after combined treatments)?
Its value is “complete resolution of peritoneal metastasis”.

And the ascites ([2]; end of the sixth week, DNP with carboplatin, mitomycin, doxifluridine)?
The ascites was “resolved”.

What about the survival ([2]; nine and a half months after treatment) of the same compound?
The survival was “alive without any evidence of tumor reoccurrence”.

What about the “serum levels of amylase and all tumor markers” value ([2]; week 6, combined treatments) of the same compound?
Its value is “normal at week 6”.

What about the “serial imaging of hepatic and bone cysts” value ([3]; 2 and 4 weeks post treatment) of the same compound?
Its value is “hepatic and bone cyst shrinkage with increased density”.

And the “magnetic resonance imaging of cysts” value ([3]; 4 months)?
Its value is “complete cyst disappearance in the liver and bone”.

And the bone pain ([4]; 6th day following therapy, DNP with methylene blue)?
Its bone pain is “decrease in their low back, hip and other areas of bone pain”.

What about the PSA values ([4]; 6 weeks after treatment) of the same compound?
Its PSA values is 30 ng/mL.

What about the “tumor necrotic on prostatic biopsy” value ([4]; 10 weeks after initiation of treatment) of the same compound?
The value was 95%.

And the analgesic use ([4]; by 2 weeks)?
Its analgesic use is “off all narcotic (morphine) analgesics”.

What about the acid phosphatase ([4]; day 8) of the same compound?
The acid phosphatase was “remained unchanged”.

And the “increase in PSA level” value ([4]; day 8)?
The value was “approximately 120%”.

And the PSA level ([4]; day 8, pretreatment 58 ng/ml)?
The PSA level was 125 ng/mL.

And the repeat prostate biopsy ([4]; end of month 4, oral DNP 250 mg twice a day after IV therapy)?
Its repeat prostate biopsy is “very few intact acini or viable acinar cells”.

And the weight gained ([4]; three months after initiation of therapy)?
The weight gained was 8.2 kg.

Reference: patent publication US7635722B1, “Chemical induced intracellular hyperthermia” (priority 1998, dated 2009)
